Measured values reported in patent publication US20240368181A1, “QUINOXALINE DERIVATIVES AND USES THEREOF” (Black Diamond Therapeutics, Inc., priority 2021, published 2024).
pIC50: −log10 of the molar value.

What was measured:
Assay type in all cases: cell-based
[1] = test system: SNU-16 (FGFR2-amplification) cells; test: cell proliferation assay (CellTiterGlo), SNU-16 cells; conditions: Homo sapiens, 72 hours
Outline: (§1)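 Cells were incubated with vehicle (DMSO) or compound over a range of concentrations. Growth inhibition was read by CellTiterGlo luminescence of intracellular ATP. IC50 was derived after normalizing to vehicle-treated cells as viable.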

[2] = test system: UM-UC-14 (FGFR3-S249C) cells; test: cell proliferation assay (CellTiterGlo), UM-UC-14 cells; conditions: UMUC14, 72 h
Outline: as §1

[3] = test system: DMS-114 (FGFR1 overexpression) cells; test: cell proliferation assay (CellTiterGlo), DMS-114 cells; conditions: Homo sapiens, DMS-114, 72 h
Outline: as §1

[4] = test system: RT-112 (FGFR3-Tacc3 fusion) cells; test: cell proliferation assay (CellTiterGlo), RT-112 cells; conditions: Homo sapiens, RT-112, RT112 cells, 72 hours
Outline: as §1

Row | pIC50 [1] | Structure (SMILES) | pIC50 [2] | pIC50 [3] | pIC50 [4]
1 | 7.00 to 7.70 | Cc1nc2ccc(Oc3ccc4ncc(-c5cnn([C@H]6CCN(CC(F)(F)F)C[C@@H]6F)c5)nc4c3Cl)cc2[nH]1 [Compound 262] | 6.40 to 7.00 | ≤ 6.40 | 7.00 to 7.70
2 | > 7.70 | Cc1nc2ccc(Oc3ccc4ncc(-c5cnn(CC6CCS(=O)(=O)CC6)c5)nc4c3Br)cc2[nH]1 [Compound 279] | > 7.70 | ≤ 6.40 | > 7.70
3 | 7.00 to 7.70 | C=CCn1cc(-c2cnc3ccc(Oc4ccc5nc(C)[nH]c5c4)c(Cl)c3n2)cn1 [Compound 347] | 6.40 to 7.00 | ≤ 6.40 | 7.00 to 7.70
4 | 7.00 to 7.70 | CNC(=O)N1CC2CC1CC2Cn1cc(-c2cnc3ccc(Oc4ccc5nc(C)[nH]c5c4)c(Cl)c3n2)cn1 (centres unmarked) [Compound 313] | 7.00 to 7.70 | ≤ 6.40 | 7.00 to 7.70
5 | ≤ 6.40 | Cc1nc2ccc(Oc3ccc4ncc(-c5cnn(CC(=O)O)c5)nc4c3Cl)cc2[nH]1 [Compound 269] | ≤ 6.40 | ≤ 6.40 | ≤ 6.40
6 | 6.40 to 7.00 | Cc1nc2ccc(Oc3ccc4ncc(-c5cnn(C(C)(C)C6CC(F)(F)C6)c5)nc4c3Cl)cc2[nH]1 [Compound 147] | 6.40 to 7.00 | ≤ 6.40 | 7.00 to 7.70
7 | 7.00 to 7.70 | Cc1nc2ccc(Oc3ccc4ncc(-c5cnn(CCN6CCCC6)c5)nc4c3Cl)cc2[nH]1 [Compound 381] | 7.00 to 7.70 | ≤ 6.40 | 7.00 to 7.70
8 | 7.00 to 7.70 | Cc1nc2ccc(Oc3ccc4ncc(-c5cn(C6CCNCC6)nc5C)nc4c3Cl)cc2[nH]1 [Compound 264] | 7.00 to 7.70 | 6.40 to 7.00 | 7.00 to 7.70
9 | 7.00 to 7.70 | Cc1nc2ccc(Oc3ccc4ncc(-c5cnn(C6CCN(C(=O)N7CCC7)CC6)c5)nc4c3Cl)cc2[nH]1 [Compound 232] | 7.00 to 7.70 | ≤ 6.40 | 7.00 to 7.70
10 | ≤ 6.40 | Cc1nc2ccc(Oc3ccc4ncc(-c5cnn(CC6CC(F)(F)C6)c5)nc4c3C3CCOCC3)cc2[nH]1 [Compound 94] | ≤ 6.40 | ≤ 6.40 | ≤ 6.40
11 | > 7.70 | Cc1nc2ccc(Oc3ccc4ncc(-c5cnn(CC6CC7CC6CN7CC(N)=O)c5)nc4c3Cl)cc2[nH]1 (centres unmarked) [Compound 329] | > 7.70 | 6.40 to 7.00 | > 7.70
12 | 7.00 to 7.70 | COCCN1CCC(n2cc(-c3cnc4ccc(Oc5ccc6nc(C)[nH]c6c5)c(Cl)c4n3)cn2)CC1 [Compound 316] | 7.00 to 7.70 | ≤ 6.40 | 7.00 to 7.70
13 | 6.40 to 7.00 | Cc1nc2ccc(Oc3ccc4ncc(-c5cnn(CC(=O)N6C[C@@H](C)O[C@@H](C)C6)c5)nc4c3Cl)cc2[nH]1 [Compound 193] | 6.40 to 7.00 | ≤ 6.40 | 7.00 to 7.70
14 | 7.00 to 7.70 | CNC(=O)N1CCC(n2cc(-c3cnc4ccc(Oc5ccc6nc(C)[nH]c6c5)c(Cl)c4n3)cn2)CC1 [Compound 321] | 7.00 to 7.70 | ≤ 6.40 | 7.00 to 7.70
15 | > 7.70 | Cc1nc2ccc(Oc3ccc4ncc(-c5cnn(C[C@@H]6CCS(=O)(=O)C6)c5)nc4c3Cl)cc2[nH]1 [Compound 307] | 7.00 to 7.70 | 6.40 to 7.00 | > 7.70
16 | 7.00 to 7.70 | Cc1nc2ccc(Oc3ccc4ncc(-c5cnn(C6CN(C7CCOCC7)C6)c5)nc4c3Cl)cc2[nH]1 [Compound 238] | 7.00 to 7.70 | 6.40 to 7.00 | 7.00 to 7.70
17 | 7.00 to 7.70 | Cc1nc2ccc(Oc3ccc4ncc(-c5cnn(C[C@H](C)O)c5)nc4c3Cl)cc2[nH]1 [Compound 119] | > 7.70 | 6.40 to 7.00 | 7.00 to 7.70
18 | 7.00 to 7.70 | Cc1nc2ccc(Oc3ccc4ncc(-c5cnn(CC(=O)N6CCC6)c5)nc4c3Cl)cc2[nH]1 [Compound 319] | 7.00 to 7.70 | ≤ 6.40 | 7.00 to 7.70
19 | > 7.70 | Cc1nc2ccc(Oc3ccc4ncc(-c5cnn(C[C@H]6CCS(=O)(=O)C6)c5)nc4c3Cl)cc2[nH]1 [Compound 311] | 7.00 to 7.70 | 6.40 to 7.00 | > 7.70
20 | > 7.70 | Cc1nc2ccc(Oc3ccc4ncc(-c5cnn(C6CCN(S(C)(=N)=O)CC6)c5)nc4c3Cl)cc2[nH]1 (centres unmarked) [Compound 82] | 7.00 to 7.70 | 6.40 to 7.00 | 7.00 to 7.70
21 | 6.40 to 7.00 | Cc1nc2ccc(Oc3ccc4ncc(-c5cnn(CCC6CCNCC6)c5)nc4c3Cl)cc2[nH]1 [Compound 304] | 7.00 to 7.70 | ≤ 6.40 | 7.00 to 7.70
22 | 7.00 to 7.70 | Cc1nc2ccc(Oc3ccc4ncc(-c5cnn([C@H]6C[C@@H](N7CC(O)C7)C6)c5)nc4c3Cl)cc2[nH]1 [Compound 213] | 7.00 to 7.70 | 6.40 to 7.00 | 7.00 to 7.70

Row | pIC50 [1] | Structure (SMILES) | pIC50 [2] | pIC50 [3] | pIC50 [4]
23 | ≤ 6.40 | Cc1nc2ccc(Oc3ccc4ncc(-c5cnn(CCN6CCC6)c5)nc4c3Cl)cc2[nH]1 [Compound 239] | ≤ 6.40 | ≤ 6.40 | ≤ 6.40
24 | 7.00 to 7.70 | Cc1nc2ccc(Oc3ccc4ncc(-c5cnn(CCN6CCCC6=O)c5)nc4c3Cl)cc2[nH]1 [Compound 215] | 7.00 to 7.70 | ≤ 6.40 | 7.00 to 7.70
25 | > 7.70 | Cc1nc2ccc(Oc3ccc4ncc(-c5cnn(CC6(O)CC6)c5)nc4c3C3=CCOC3)c(F)c2[nH]1 [Compound 77] | 7.00 to 7.70 | 7.00 to 7.70 | > 7.70
26 | 7.00 to 7.70 | Cc1nc2ccc(Oc3ccc4ncc(-c5cnn(C6CC(N7CC(F)(F)C7)C6)c5)nc4c3Cl)cc2[nH]1 (centres unmarked) [Compound 265] | 7.00 to 7.70 | 6.40 to 7.00 | 7.00 to 7.70
27 | > 7.70 | Cc1nc2ccc(Oc3ccc4ncc(-c5cnn(CC(C)(C)O)c5)nc4c3Cl)c(F)c2[nH]1 [Compound 131] | > 7.70 | 6.40 to 7.00 | > 7.70
28 | 6.40 to 7.00 | Cc1nc2ccc(Oc3ccc4ncc(-c5cnn(CC(=O)NCC(C)(C)NC=O)c5)nc4c3Cl)cc2[nH]1 [Compound 208] | ≤ 6.40 | ≤ 6.40 | 6.40 to 7.00
29 | 7.00 to 7.70 | Cc1nc2ccc(Oc3ccc4ncc(-c5cnn(C6CN(CC7COC7)C6)c5)nc4c3Cl)cc2[nH]1 [Compound 217] | 7.00 to 7.70 | ≤ 6.40 | 7.00 to 7.70
30 | 7.00 to 7.70 | COC1CCN(C(=O)Cn2cc(-c3cnc4ccc(Oc5ccc6nc(C)[nH]c6c5)c(Cl)c4n3)cn2)C1 (centres unmarked) [Compound 277] | 6.40 to 7.00 | ≤ 6.40 | 7.00 to 7.70
31 | 7.00 to 7.70 | Cc1nc2ccc(Oc3ccc4ncc(-c5cnn(CC6CC(F)(F)C6)c5)nc4c3C3=CCCOC3)cc2[nH]1 [Compound 91] | 7.00 to 7.70 | ≤ 6.40 | 7.00 to 7.70
32 | 7.00 to 7.70 | Cc1nc2ccc(Oc3ccc4ncc(-c5cnn([C@H]6C[C@H](N7CC(O)C7)C6)c5)nc4c3Cl)cc2[nH]1 [Compound 214] | 7.00 to 7.70 | 6.40 to 7.00 | 7.00 to 7.70
33 | 7.00 to 7.70 | Cc1nc2ccc(Oc3ccc4ncc(-c5cnn(CC6CCN(C)CC6(F)F)c5)nc4c3Cl)cc2[nH]1 (centres unmarked) [Compound 380] | 7.00 to 7.70 | ≤ 6.40 | > 7.70
34 | 6.40 to 7.00 | Cc1nc2ccc(Oc3ccc4ncc(-c5cnn(C(C)(C)C(=O)N6CCOCC6)c5)nc4c3Cl)cc2[nH]1 [Compound 209] | 6.40 to 7.00 | ≤ 6.40 | 7.00 to 7.70
35 | > 7.70 | Cc1nc2ccc(Oc3ccc4ncc(-c5cnn(C6CCN(CCO)CC6)c5)nc4c3Cl)cc2[nH]1 [Compound 301] | 7.00 to 7.70 | ≤ 6.40 | > 7.70
36 | ≤ 6.40 | Cc1nc2ccc(Oc3ccc4ncc(-c5cnn(C(OCc6ccccc6)C6CC6)c5)nc4c3Cl)cc2[nH]1 (centres unmarked) [Compound 222] | ≤ 6.40 | ≤ 6.40 | ≤ 6.40
37 | > 7.70 | Cc1nc2ccc(Oc3ccc4ncc(-c5cnn(CC6CC(F)(F)C6)c5)nc4c3-c3ccoc3)c(F)c2[nH]1 [Compound 81] | > 7.70 | 6.40 to 7.00 | > 7.70
38 | ≤ 6.40 | Cc1nc2cc(Oc3ccc4ncc(-c5cnn(CC6(O)CCNCC6)c5)nc4c3Cl)ccc2[nH]1 [Compound 349] | ≤ 6.40 | ≤ 6.40 | ≤ 6.40
39 | 6.40 to 7.00 | Cc1nc2ccc(Oc3ccc4ncc(-c5cnn(C(C)(C)C(=O)N6CC[C@@H](F)C6)c5)nc4c3Cl)cc2[nH]1 [Compound 210] | 6.40 to 7.00 | ≤ 6.40 | 7.00 to 7.70
40 | 7.00 to 7.70 | Cc1nc2ccc(Oc3ccc4ncc(-c5cnn(CCN6CCC(O)C6)c5)nc4c3Cl)cc2[nH]1 (centres unmarked) [Compound 267] | 7.00 to 7.70 | ≤ 6.40 | 7.00 to 7.70
41 | 7.00 to 7.70 | Cc1nc2ccc(Oc3ccc4ncc(-c5cnn(C6CC7CC6CN7C(C)C)c5)nc4c3Cl)cc2[nH]1 (centres unmarked) [Compound 342] | 7.00 to 7.70 | ≤ 6.40 | 7.00 to 7.70
42 | 7.00 to 7.70 | Cc1nc2ccc(Oc3ccc4ncc(-c5cnn(C(C)(C)CC(N)=O)c5)nc4c3Cl)cc2[nH]1 [Compound 282] | 6.40 to 7.00 | ≤ 6.40 | 7.00 to 7.70
43 | 7.00 to 7.70 | Cc1nc2ccc(Oc3ccc4ncc(-c5cnn(CC6CCC(S(C)(=O)=O)CC6)c5)nc4c3Cl)cc2[nH]1 (centres unmarked) [Compound 366] | 7.00 to 7.70 | ≤ 6.40 | 7.00 to 7.70

Row | Structure (SMILES) | pIC50 [1] | pIC50 [2] | pIC50 [3] | pIC50 [4]
44 | Cc1nc2ccc(Oc3ccc4ncc(-c5cnn([C@@H]6C[C@H]7CC[C@@H](C6)N7C)c5)nc4c3Cl)cc2[nH]1 [Compound 363] | 7.00 to 7.70 | 7.00 to 7.70 | ≤ 6.40 | 7.00 to 7.70
